Earlier results, collected in patent EP4470382A1, “PLANT EXTRACT AND METHODS COMPRISING THEREOF” (FUNDACION UNIVERSITARIA SAN ANTONIO (UCAM), priority 2023, dated 2024).

Settings: activity registered in BIOPEP for the sequence

## LLYQEPVLGPVRGPFPIIV [peptide derived from bovine b-casein (1-28), identified in bovine casein hydrolysate, BIOPEP ID 8174]
  Activity: immunomodulat ing

## YQKFPQY
  Activity: ACE inhibitor

## RPKHPIKHQGLPQEVLNENLLRF [Isracidin - antiviral, identified in bovine casein hydrolysate, BIOPEP ID 9530]
  Activity: antiviral

## VYQHQKAMKPWIQPKTKVIPYVRYL [(fr. 183-207) of bovine alpha s2-casein, identified in bovine casein hydrolysate, BIOPEP ID 5469]
  Activity: antibacterial

## SQSKVLPVPQKAVPYPQ [Antioxidative peptide identified in bovine casein hydrolysate, BIOPEP ID 9907]
  Activity: antioxidative
